Reference: US20200264182A1, “METHOD FOR DETECTING PROSTATE CANCER” (J-OIL MILLS, INC., priority 2017, published 2020)

Key:
serum fucosylated PSA = test: Sandwich ELISA, anti-PSA antibody and biotin-labeled lectin; assay type: binding, human; conditions: for Δ (=A − B): reaction value of Prostate cancer 4 minus Healthy 1; for lectin reaction value B of Healthy 1: serum of Healthy 1; for lectin reaction value A of Prostate cancer 4: serum of Prostate cancer 4, GS 6 (3 + 3)
Protocol: The anti-PSA antibody from which sugar chains had been removed was diluted to 5 μg/mL with PBS. 25 μL of this diluted solution was added to each well of an ELISA plate and allowed to stand at 37° C. for 12 hours, and then the additive solution was discarded.
150 μL of PBS containing 0.05% Tween 20 (product name: polyoxyethylene sorbitan monolaurate, from Nacalai Tesque, Inc.) was added to each well, and then the additive solution was discarded. This manipulation was repeated three times in total.
25 μL of 1% BSA/PBS was added to each well and allowed to stand at 37° C. for 1 hour, and then the additive solution was discarded.
150 μL of PBS containing 0.05% Tween 20 was added to each well, and then the additive solution was discarded. This manipulation was repeated three times in total.
To graph a calibration curve, 25 μL of the fucosylated PSA reference standard diluted with 1% BSA/PBS to a concentration of 0 to 200 ng/mL was added to each well and allowed to stand at room temperature for 1 hour, and then the additive solution was discarded. In addition, to detect the fucosylated PSA in the serum of the subject by the lectin, 25 μL of serum of “Healthy 1” and “Prostate cancer 4” 2-fold diluted with PBS was added to each well and allowed to stand at room temperature for 1 hour, and then the additive solution was discarded.
In Reference Example 1, 25 μL of a biotin-labeled PhoSL diluted to 0.1 μg/mL with 0.1% BSA/PBS (pH 7.4) was added to each well and allowed to stand at 4° C. for 30 minutes, and then the additive solution was discarded. In Example 1, 25 μL of a biotin-labeled PhoSL diluted to 0.1 μg/mL with 0.1% BSA/10-fold diluted PBS+glycine-NaOH (pH 9.6) was added to each well and allowed to stand at 4° C. for 30 minutes, and then the additive solution was discarded.
25 μL of a horseradish peroxidase (HRP)-labeled streptavidin solution (from Vector Laboratories, Inc., concentration: 0.4 μg/mL, in 1% BSA/PBS) was added to each well and allowed to stand at room temperature for 30 minutes, and then the additive solution was discarded.
25 μL of chromogenic substrate for HRP (product name: TMB, from Kirkegaard & Perry Laboratories, Inc.) was added to each well and allowed to stand at room temperature for 10 minutes.
25 μL of 1M phosphoric acid was added to terminate the reaction.
Absorbance (Ab) at 450 nm and 630 nm was measured using a plate reader, and a measurement (Ab450-630) was obtained.
A calibration curve was graphed by plotting signals (reaction values, Ab450-630) of the fucosylated PSA reference standard with the biotin-labeled PhoSL. A Signal (Ab450-630) of the biotin-labeled PhoSL corresponding to the fucosylated PSA concentration of 10 ng/mL was defined as 10 U/mL.
The signals of biotin-labeled PhoSL (Ab450-630) for the serum fucosylated PSA in the subject samples A were assigned to the calibration curve to calculate reaction values (unit: U/mL).
The PhoSL reaction values for the subject samples A were measured by the same operation as in Example 1. From the PhoSL reaction values, an average value and a median value were determined. Furthermore, a standard cutoff value (89.7 U/mL) was used to determine a detection rate (positive rate) of the prostate cancer patients, and a false detection rate (false positive rate) of the healthy persons.
Comparative Example 2 in Table 9 indicates results of detecting the serum fucosylated PSA using AAL (AAL reaction values) in the subject samples A. Specifically, in Reference Example 1, AAL reaction values were measured in the same manner as in Reference Example 1 except that the biotin-labeled PhoSL was replaced with a biotin-labeled AAL. A standard cut-off value for the AAL reaction values was 894.8 U/mL. As in Example 2, an average value, a median value, a positive rate and a false positive rate were determined from the AAL reaction values.

FAC binding constant = conditions: at 25° C.
Protocol: (§1) Details of the FAC method are described in Patent Document 2 filed by some of the present applicants, for example.
(§2) Binding constants (at 25° C.) of PhoSL, SRL, NSL and LSL belonging to the fucose α1→6 specific lectin for various sugar chains are shown in Tables 2 to 5.

[1] = FAC binding constant (Table 5 entry); conditions: Table 5: sugar chain having no fucose; at 25° C.
Protocol: as §1, §2

[2] = sugar chain having fucose other than α1→6 fucose

SRL: fucose α1→6 specific lectin that can be extracted from Stropharia rugosoannulata, SEQ ID No. 2
64000 M⁻¹: Binding constant for sugar chain No. 201 (FAC binding constant; sugar chain having α1→6 fucose)
56000 M⁻¹: Binding constant for sugar chain No. 403 (FAC binding constant; sugar chain having α1→6 fucose)
146.3 U/mL: lectin reaction value A of Prostate cancer 4 (serum fucosylated PSA; pH in lectin reaction 7.4)
57000 M⁻¹: Binding constant for sugar chain No. 401 (FAC binding constant; sugar chain having α1→6 fucose)
38000 M⁻¹: Binding constant for sugar chain No. 406 (FAC binding constant; sugar chain having α1→6 fucose)
54000 M⁻¹: Binding constant for sugar chain No. 405 (FAC binding constant; sugar chain having α1→6 fucose)
16.8 U/mL: lectin reaction value B of Healthy 1 (serum fucosylated PSA; pH in lectin reaction 9.6)
217.7 U/mL: Δ (=A − B) (serum fucosylated PSA; pH in lectin reaction 9.6)
52000 M⁻¹: Binding constant for sugar chain No. 203 (FAC binding constant; sugar chain having α1→6 fucose)
4300 M⁻¹: Binding constant for sugar chain No. 418 (FAC binding constant; sugar chain having α1→6 fucose)
<1000 M⁻¹: Binding constant for sugar chain No. 728 (FAC binding constant; Table 3: sugar chain having fucose other than α1→6 fucose) | Binding constant for sugar chain No. 419 (FAC binding constant; [2]) | Binding constant for sugar chain No. 420 (FAC binding constant; [2]) | Binding constant for sugar chain No. 718 (FAC binding constant; [2]) | Binding constant for sugar chain No. 719 (FAC binding constant; [2]) | Binding constant for sugar chain No. 720 (FAC binding constant; [2]) | Binding constant for sugar chain No. 721 (FAC binding constant; [2]) | Binding constant for sugar chain No. 722 (FAC binding constant; [2]) | Binding constant for sugar chain No. 723 (FAC binding constant; [2]) | Binding constant for sugar chain No. 726 (FAC binding constant; [2]) | Binding constant for sugar chain No. 727 (FAC binding constant; [2]) | Binding constant for sugar chain No. 729 (FAC binding constant; [2]) | Binding constant for sugar chain No. 730 (FAC binding constant; [2]) | Binding constant for sugar chain No. 731 (FAC binding constant; [2]) | Binding constant for sugar chain No. 739 (FAC binding constant; [2]) | Binding constant for sugar chain No. 909 (FAC binding constant; [2]) | Binding constant for sugar chain No. 910 (FAC binding constant; [2]) | Binding constant for sugar chain No. 931 (FAC binding constant; [2]) | Binding constant for sugar chain No. 932 (FAC binding constant; [2]) | Binding constant for sugar chain No. 933 (FAC binding constant; [2]) | Binding constant for sugar chain No. 001 (FAC binding constant; sugar chain having no fucose) | Binding constant for sugar chain No. 002 (FAC binding constant; sugar chain having no fucose) | Binding constant for sugar chain No. 003 (FAC binding constant; sugar chain having no fucose) | Binding constant for sugar chain No. 004 (FAC binding constant; sugar chain having no fucose) | Binding constant for sugar chain No. 005 (FAC binding constant; sugar chain having no fucose) | Binding constant for sugar chain No. 006 (FAC binding constant; sugar chain having no fucose) | Binding constant for sugar chain No. 007 (FAC binding constant; sugar chain having no fucose) | Binding constant for sugar chain No. 008 (FAC binding constant; sugar chain having no fucose) | Binding constant for sugar chain No. 009 (FAC binding constant; sugar chain having no fucose) | Binding constant for sugar chain No. 010 (FAC binding constant; sugar chain having no fucose) | Binding constant for sugar chain No. 011 (FAC binding constant; sugar chain having no fucose) | Binding constant for sugar chain No. 012 (FAC binding constant; sugar chain having no fucose) | Binding constant for sugar chain No. 013 (FAC binding constant; sugar chain having no fucose) | Binding constant for sugar chain No. 014 (FAC binding constant; sugar chain having no fucose) | Binding constant for sugar chain No. 101 (FAC binding constant; sugar chain having no fucose) | Binding constant for sugar chain No. 103 (FAC binding constant; sugar chain having no fucose) | Binding constant for sugar chain No. 104 (FAC binding constant; sugar chain having no fucose) | Binding constant for sugar chain No. 105 (FAC binding constant; sugar chain having no fucose) | Binding constant for sugar chain No. 107 (FAC binding constant; sugar chain having no fucose) | Binding constant for sugar chain No. 108 (FAC binding constant; sugar chain having no fucose) | Binding constant for sugar chain No. 301 (FAC binding constant; sugar chain having no fucose) | Binding constant for sugar chain No. 304 (FAC binding constant; sugar chain having no fucose) | Binding constant for sugar chain No. 305 (FAC binding constant; sugar chain having no fucose) | Binding constant for sugar chain No. 307 (FAC binding constant; sugar chain having no fucose) | Binding constant for sugar chain No. 308 (FAC binding constant; sugar chain having no fucose) | Binding constant for sugar chain No. 313 (FAC binding constant; sugar chain having no fucose) | Binding constant for sugar chain No. 314 (FAC binding constant; sugar chain having no fucose) | Binding constant for sugar chain No. 323 (FAC binding constant; sugar chain having no fucose) | Binding constant for sugar chain No. 501 (FAC binding constant; sugar chain having no fucose) | Binding constant for sugar chain No. 502 (FAC binding constant; sugar chain having no fucose) | Binding constant for sugar chain No. 503 (FAC binding constant; sugar chain having no fucose) | Binding constant for sugar chain No. 504 (FAC binding constant; sugar chain having no fucose) | Binding constant for sugar chain No. 701 (FAC binding constant; sugar chain having no fucose) | Binding constant for sugar chain No. 702 (FAC binding constant; sugar chain having no fucose) | Binding constant for sugar chain No. 703 (FAC binding constant; sugar chain having no fucose) | Binding constant for sugar chain No. 704 (FAC binding constant; sugar chain having no fucose) | Binding constant for sugar chain No. 705 (FAC binding constant; sugar chain having no fucose) | Binding constant for sugar chain No. 706 (FAC binding constant; sugar chain having no fucose) | Binding constant for sugar chain No. 707 (FAC binding constant; sugar chain having no fucose) | Binding constant for sugar chain No. 708 (FAC binding constant; sugar chain having no fucose) | Binding constant for sugar chain No. 709 (FAC binding constant; sugar chain having no fucose) | Binding constant for sugar chain No. 710 (FAC binding constant; sugar chain having no fucose) | Binding constant for sugar chain No. 711 (FAC binding constant; sugar chain having no fucose) | Binding constant for sugar chain No. 712 (FAC binding constant; sugar chain having no fucose) | Binding constant for sugar chain No. 713 (FAC binding constant; sugar chain having no fucose) | Binding constant for sugar chain No. 715 (FAC binding constant; sugar chain having no fucose) | Binding constant for sugar chain No. 716 (FAC binding constant; sugar chain having no fucose) | Binding constant for sugar chain No. 717 (FAC binding constant; sugar chain having no fucose) | Binding constant for sugar chain No. 724 (FAC binding constant; sugar chain having no fucose) | Binding constant for sugar chain No. 725 (FAC binding constant; sugar chain having no fucose) | Binding constant for sugar chain No. 732 (FAC binding constant; sugar chain having no fucose) | Binding constant for sugar chain No. 733 (FAC binding constant; sugar chain having no fucose) | Binding constant for sugar chain No. 734 (FAC binding constant; sugar chain having no fucose) | Binding constant for sugar chain No. 735 (FAC binding constant; sugar chain having no fucose) | Binding constant for sugar chain No. 736 (FAC binding constant; sugar chain having no fucose) | Binding constant for sugar chain No. 737 (FAC binding constant; sugar chain having no fucose) | Binding constant for sugar chain No. 738 (FAC binding constant; sugar chain having no fucose) | Binding constant for sugar chain No. 901 (FAC binding constant; sugar chain having no fucose) | Binding constant for sugar chain No. 902 (FAC binding constant; sugar chain having no fucose) | Binding constant for sugar chain No. 903 (FAC binding constant; sugar chain having no fucose) | Binding constant for sugar chain No. 905 (FAC binding constant; sugar chain having no fucose) | Binding constant for sugar chain No. 906 (FAC binding constant; sugar chain having no fucose) | Binding constant for sugar chain No. 907 (FAC binding constant; sugar chain having no fucose) | Binding constant for sugar chain No. 728 [1]
234.5 U/mL: lectin reaction value A of Prostate cancer 4 (serum fucosylated PSA; pH in lectin reaction 9.6)
39000 M⁻¹: Binding constant for sugar chain No. 410 (FAC binding constant; sugar chain having α1→6 fucose)
44000 M⁻¹: Binding constant for sugar chain No. 402 (FAC binding constant; sugar chain having α1→6 fucose)
126.3 U/mL: Δ (=A − B) (serum fucosylated PSA; pH in lectin reaction 7.4)
61000 M⁻¹: Binding constant for sugar chain No. 202 (FAC binding constant; sugar chain having α1→6 fucose)
58000 M⁻¹: Binding constant for sugar chain No. 404 (FAC binding constant; sugar chain having α1→6 fucose)
10000 M⁻¹: Binding constant for sugar chain No. 407 (FAC binding constant; sugar chain having α1→6 fucose) | Binding constant for sugar chain No. 601 (FAC binding constant; sugar chain having α1→6 fucose)
20.0 U/mL: lectin reaction value B of Healthy 1 (serum fucosylated PSA; pH in lectin reaction 7.4)
32000 M⁻¹: Binding constant for sugar chain No. 602 (FAC binding constant; sugar chain having α1→6 fucose)
49000 M⁻¹: Binding constant for sugar chain No. 015 (FAC binding constant; sugar chain having α1→6 fucose)
